Reference: patent publication US11786534B2 (TAIHO PHARMACEUTICAL CO., LTD., priority 2019, dated 2023)
pIC50: −log10 of the molar value.

How the values were obtained:
[1] = biological target: Ba/F3-EGFR (L858R/T790M/C797S) (Homo sapiens, UniProt P00533, T790M/C797S/L858R, cells depend on it); experiment: Growth inhibition of cell line expressing EGFR (L858R/T790M/C797S); format: cell-based, mouse; conditions: Test Example 2, Table 7; culture 3 days, CellTiter-Glo; read-out: BaF3_EGFR (L858R/T790M/C797S) IC50 value
Chain of Ba/F3-EGFR (L858R/T790M/C797S) (P00533 whole entry T790M/C797S/L858R): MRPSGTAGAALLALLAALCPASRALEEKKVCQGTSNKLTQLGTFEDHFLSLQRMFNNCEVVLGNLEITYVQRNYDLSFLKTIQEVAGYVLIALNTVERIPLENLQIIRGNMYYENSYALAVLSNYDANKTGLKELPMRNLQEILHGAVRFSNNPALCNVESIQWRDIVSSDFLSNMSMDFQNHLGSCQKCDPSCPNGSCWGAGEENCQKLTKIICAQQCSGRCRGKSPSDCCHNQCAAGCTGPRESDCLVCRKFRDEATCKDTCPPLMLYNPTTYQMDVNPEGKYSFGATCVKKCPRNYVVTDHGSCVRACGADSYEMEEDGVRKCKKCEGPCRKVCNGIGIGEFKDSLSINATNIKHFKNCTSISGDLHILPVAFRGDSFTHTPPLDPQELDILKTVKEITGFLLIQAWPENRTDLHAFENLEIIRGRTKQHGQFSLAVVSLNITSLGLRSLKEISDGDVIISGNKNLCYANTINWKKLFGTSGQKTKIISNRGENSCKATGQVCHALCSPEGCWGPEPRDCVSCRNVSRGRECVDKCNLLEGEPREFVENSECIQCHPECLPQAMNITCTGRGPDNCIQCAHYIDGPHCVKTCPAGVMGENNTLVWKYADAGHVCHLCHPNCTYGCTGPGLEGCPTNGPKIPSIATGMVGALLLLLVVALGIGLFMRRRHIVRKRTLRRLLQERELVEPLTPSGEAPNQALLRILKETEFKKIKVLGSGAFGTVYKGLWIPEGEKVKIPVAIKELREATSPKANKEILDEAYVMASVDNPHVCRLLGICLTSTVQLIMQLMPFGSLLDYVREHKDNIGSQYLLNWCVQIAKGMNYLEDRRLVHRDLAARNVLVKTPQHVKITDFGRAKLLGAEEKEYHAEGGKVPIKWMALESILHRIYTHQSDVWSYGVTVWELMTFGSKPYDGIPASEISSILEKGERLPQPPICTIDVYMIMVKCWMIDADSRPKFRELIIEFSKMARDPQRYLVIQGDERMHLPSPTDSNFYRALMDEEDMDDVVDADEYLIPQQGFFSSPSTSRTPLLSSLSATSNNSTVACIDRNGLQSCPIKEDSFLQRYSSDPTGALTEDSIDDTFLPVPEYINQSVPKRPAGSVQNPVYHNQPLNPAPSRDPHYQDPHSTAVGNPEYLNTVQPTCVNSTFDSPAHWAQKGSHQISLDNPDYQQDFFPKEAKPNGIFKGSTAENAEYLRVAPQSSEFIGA
From the text: Test for inhibitory activity against the growth of cell lines expressing wild-type and mutated EGFRs (in vitro)
(1) Mouse cell line Ba/F3-EGFR (d746-750/T790M/C797S) transfected with and stably expressing EGFR (d746-750/T790M/C797S), mouse cell Ba/F3-EGFR (L858R/T790M/C797S) transfected with and stably expressing EGFR (L858R/T790M/C797S), and mouse cell line Ba/F3-EGFR (WT) transfected with and stably expressing wild-type EGFR were each suspended in RPMI-1640 cell culture medium (RPMI-1640, 10% FBS, 100 unit/ml penicillin, 0.1 mg/ml streptomycin). In the case of the mouse cell line Ba/F3-EGFR (WT), RPMI-1640 cell culture medium containing EGF at a final concentration of 50 ng/ml was used to suspend this cell line. It should be noted that the mouse cell line Ba/F3-EGFR (d746-750/T790M/C797S) transfected with and stably expressing EGFR (d746-750/T790M/C797S), the mouse cell line Ba/F3-EGFR (L858R/T790M/C797S) transfected with and stably expressing EGFR (L858R/T790M/C797S) and the mouse cell line Ba/F3-EGFR (WT) transfected with and stably expressing wild-type EGFR were prepared by using nucleotide sequences encoding the proteins of SEQ ID NOs: 1 and 2 in accordance with Test Example 1 in WO2018/079310, These cell suspensions were seeded in wells of 96-well flat -bottomed plates. The compounds of the present invention were dissolved in DMSO, and serial dilutions of these test compounds were prepared with DMSO (1000-fold of the final concentration). Each test compound solution in DMSO or DMSO alone was diluted with RPMI-1640 cell culture medium for each cell line, and this dilution was added to wells of the cell culture plate such that the final concentration of DMSO was 0.1%, followed by culture at 37° C. for 3 days in a 5% carbon dioxide gas-containing incubator. Before and after addition of each test compound solution in DMSO, the number of cells was counted using the CellTiter-Glo® system (Promega) on the basis of the protocol recommended by Promega.
In each cell line, the rate of cell growth inhibition was calculated according to the equation shown below in wells to which each test compound was added at different concentrations. Moreover, the inhibition rate at each concentration was plotted for each test compound, and the concentration of each test compound required to give 50% cell survival rate, i.e., IC50 (nM) was determined by curve fitting software XLfit (IDBS).
Cell survival rate (%)=T/C×100
T: emission intensity in a well cultured for 3 days after addition of a test compound solution
C: emission intensity in a well cultured for 3 days after addition of DMSO
In accordance with the same procedures as shown in Test Example 2, the compounds of the present invention were tested for their inhibitory activity against the growth of the cell hoes expressing wild-type and mutated EGFRs.

[2] = biological target: T1, human EGFR (d746-750/T790M/C797S) (Homo sapiens, UniProt P00533, C797S/DEL746-750/T790M); experiment: Inhibitory activity against EGFR (d746-750/T790M/C797S) kinase; format: biochemical; conditions: Test Example 1, Table 2; ATP 6 μM, 25° C., 120 minutes
T1 construct: made in house; host or cells: Sf9 insect cells, baculovirus
T1 sequence (P00533 with tags, fused parts or gaps DEL746-750/T790M/C797S): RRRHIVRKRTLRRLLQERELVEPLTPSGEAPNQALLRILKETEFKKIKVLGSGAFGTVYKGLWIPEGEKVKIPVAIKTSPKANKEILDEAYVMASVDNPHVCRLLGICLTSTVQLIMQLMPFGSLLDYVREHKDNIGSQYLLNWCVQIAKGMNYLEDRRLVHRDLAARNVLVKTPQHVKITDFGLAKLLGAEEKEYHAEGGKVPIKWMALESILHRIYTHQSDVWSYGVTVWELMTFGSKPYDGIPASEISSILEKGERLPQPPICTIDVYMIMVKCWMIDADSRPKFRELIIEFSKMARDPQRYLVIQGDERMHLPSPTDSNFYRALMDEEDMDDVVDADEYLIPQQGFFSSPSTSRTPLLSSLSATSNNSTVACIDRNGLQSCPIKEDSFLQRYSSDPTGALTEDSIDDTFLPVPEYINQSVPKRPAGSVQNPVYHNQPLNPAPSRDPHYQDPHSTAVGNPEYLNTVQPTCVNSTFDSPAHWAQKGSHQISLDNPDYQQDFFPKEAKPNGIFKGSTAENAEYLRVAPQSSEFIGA
Procedure, shortened: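 GST-fused cytoplasmic domain of human EGFR d746-750/T790M/C797S (Sf9-expressed) was incubated with 250 nM biotinylated peptide, 6 μM ATP, 10 mM MgCl2 and 10 mM MnCl2 (2.5% DMSO) for 120 min at 25 °C. After an EDTA stop, phosphotyrosine was detected by Eu-PT66/SureLight APC-SA TR-FRET (665/620 nm, excitation 337 nm). Background wells received EDTA before enzyme.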

| Structure (SMILES) | GI50 [1] [nM] | pIC50 [2] |
| --- | --- | --- |
| C#Cc1c(-c2cnc3ccccc3c2)c2c(N)ncnc2n1C12CCC(NC(=O)c3cnc(C)cn3)(CC1)C2 [Example 37, N-(4-(4-Amino-6-ethynyl-5-(quinolin-3-yl)-7H-pyrrolo[2,3-d]pyrimidin-7-yl)-bicyclo-[2.2.1]heptan-1-yl)-5-methylpyrazine-2-carboxamide] | 270 | > 9.52 |
| C#Cc1c(-c2cnc3ccccc3c2)c2c(N)ncnc2n1C12CCC(CNC(=O)c3ccnn3C)(CC1)C2 [Example 13, N-((4-(4-Amino-6-ethynyl-5-(quinolin-3-yl)-7H-pyrrolo[2,3-d]pyrimidin-7-yl)bicyclo-[2.2.1]heptan-1-yl)methyl)-1-methyl-1H-pyrazole-5-carboxamide] | 910 | > 9.52 |
| C#Cc1c(-c2cnc3ccccc3c2)c2c(N)ncnc2n1C12CCC(NC(=O)c3cncnc3)(CC1)C2 [Example 2, N-(4-(4-Amino-6-ethynyl-5-(quinolin-3-yl)-7H-pyrrolo[2,3-d]pyrimidin-7-yl)bicyclo-[2.2.1]heptan-1-yl)pyrimidine-5-carboxamide] | 185 | > 9.52 |
